# Measured values published in patent US8604042B2, “Bi-aryl meta-pyrimidine inhibitors of kinases” (TargeGen, Inc., priority 2005, dated 2013).
# Where a name gives a salt, the structure may show the parent alone.
# Target: T1, recombinant JAK2 (Homo sapiens, UniProt O60674)
# T1 construct: purchased Upstate Cell Signaling Solutions
# Test: IC50 value determinations for Jak2 kinase, luminescence-based kinase assay (Kinase-Glo)
# Format: biochemical
# T1 sequence (O60674 808-1132 limits assumed): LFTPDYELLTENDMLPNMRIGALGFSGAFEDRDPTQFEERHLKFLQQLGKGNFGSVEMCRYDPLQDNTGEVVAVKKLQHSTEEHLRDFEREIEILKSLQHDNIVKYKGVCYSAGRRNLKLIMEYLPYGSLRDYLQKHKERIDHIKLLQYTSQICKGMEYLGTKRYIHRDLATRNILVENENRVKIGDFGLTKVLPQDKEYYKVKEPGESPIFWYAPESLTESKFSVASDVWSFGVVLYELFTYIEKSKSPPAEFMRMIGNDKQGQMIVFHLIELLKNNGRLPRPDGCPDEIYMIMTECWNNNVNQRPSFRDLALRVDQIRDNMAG
IC50 (Table 1) [µM],SMILES,also measured
0.00116,"Cc1cnc(Nc2ccc(OCCN3CCCC3)cc2)nc1Nc1ccc(Cl)c2[nH]ccc12 [N2-(4-(2-(pyrrolidin-1-yl)ethoxy)phenyl)-N4-(7-chloro-1H-indol-4-yl)-5-methylpyrimidine-2,4-diamine Hydrochloride]",–
–,COc1cc(Nc2nc(Nc3cccc(OCCN4CCCC4)c3)ncc2C)c(Cl)cc1Cl [Compound 3],"IC50 (Table 5, Initial Screening Hits for JAK2): 2.04 µM; IC50 (Table 7, SAR for the P3 region): 2.04 µM"
0.0335,Cc1cnc(Nc2ccc(C(=O)N3CCCC3)cc2)nc1Nc1cccc(S(=O)(=O)NC(C)(C)C)c1 [N-tert-Butyl-3-{5-methyl-2-[4-(pyrrolidine-1-carbonyl)-phenylamino]-pyrimidin-4-ylamino}-benzenesulfonamide],–
0.0123,Cc1cnc(Nc2ccc(-n3ccnc3)cc2)nc1Nc1cccc(S(=O)(=O)NC(C)(C)C)c1 [N-tert-Butyl-3-[2-(4-imidazol-1-yl-phenylamino)-5-methyl-pyrimidin-4-ylamino]-benzenesulfonamide],–
0.89,Cc1cnc(Nc2ccc(N3CCN(C)CC3)cc2)nc1Nc1cccc(C(=O)NC(C)(C)C)c1 [N-tert-Butyl-3-{5-methyl-2-[4-(4-methyl-piperazin-1-yl)-phenylamino]-pyrimidin-4-ylamino}-benzamide],–
0.0871,"Cc1cnc(Nc2ccc(N3CCN(C)CC3)cc2)nc1Nc1cccc(C(F)(F)F)c1C [N4-(3-(trifluoromethyl)-2-methylphenyl)-5-methyl-N2-(4-(4-methylpiperazin-1-yl)phenyl)pyrimidine-2,4-diamine hydrochloride]",–
0.638,COc1cccc(Nc2ccnc(Nc3ccc(S(=O)(=O)NCCN4CCCC4)cc3)n2)c1 [4-[4-(3-Methoxy-phenylamino)-pyrimidin-2-ylamino]-N-(2-pyrrolidin-1-yl-ethyl)-benzenesulfonamide trifluoroacetate],–
0.00742,"Cc1cnc(Nc2ccc(CN3CCOCC3)cc2)nc1Nc1cccc2[nH]ccc12 [N4-(1H-Indol-4-yl)-5-methyl-N2-(4-morpholin-4-ylmethyl-phenyl)-pyrimidine-2,4-diamine]",–
0.0171,"Cc1cnc(Nc2ccc(N3CCN(C)CC3)cc2)nc1Nc1cccc(S(=O)(=O)N2CCCC2)c1 [5-Methyl-N2-[4-(4-methyl-piperazin-1-yl)-phenyl]-N4-[3-(pyrrolidine-1-sulfony)-phenyl]-pyrimidine-2,4-diamine Hydrochloride]",–
0.0198,Cc1cnc(Nc2ccc(N3CCN(C)CC3)cc2)nc1Nc1cccc(S(=O)(=O)NC2CCCC2)c1 [N-Cyclopentyl3-{5-Methyl-2-[4-(4-methyl-piperazin-1-yl)-phenylamino]-pyrimidine-4-ylamino}-benzenesulfonamide Hydrochloride],–
0.0073,Cc1cnc(Nc2ccc(OC3CCNCC3)cc2)nc1Nc1cccc(S(=O)(=O)NC(C)(C)C)c1 [N-tert-Butyl-3-(5-methyl-2-[4-(piperidin-4-yloxy)-phenylamino]-pyrimidin-4-ylamino}-benzenesulfonamide],–
0.146,CC(=O)Nc1cccc(Nc2nc(Nc3ccc(OC4CCNCC4)cc3)ncc2C)c1C [N-(2-Methyl-3-(5-methyl-2-[4-(piperidin-4-yloxy)-phenylamino]-pyrimidin-4-ylamino}-phenyl)-acetamide],–
0.151,"Cc1cnc(Nc2ccc(-n3cccn3)cc2)nc1Nc1cccc(C(C)(C)C)c1 [N2-(4-(1H-pyrazol-1-yl)phenyl)-N4-(3-tert-butylphenyl)-5-methylpyrimidine-2,4-diamine]",–
0.0529,"Cc1cnc(Nc2ccc(OC3CCNCC3)cc2)nc1Nc1cccc(C(F)(F)F)c1C [5-Methyl-N4-(2-methyl-3-trifluoromethyl-phenyl)-N2-[4-(piperidin-4-yloxy)-phenyl]-pyrimidine-2,4-diamine]",–
0.00512,COC(=O)c1cc(Nc2ncc(C)c(Nc3ccc(Cl)c(OC)c3)n2)ccc1N1CCNCC1 [5-[4-(4-Chloro-3-methoxy-phenylamino)-5-methyl-pyrimidin-2-ylamino]-2-piperazin-1-yl-benzoic acid methyl ester],–
0.0142,"Cc1cnc(Nc2ccc(N3CCN(C)CC3)cc2)nc1Nc1cccc2c1OCO2 [N4-Benzo[1,3]dioxol-4-yl-5-methyl-N2-[4-(4-methyl-piperazin-1-yl)-phenyl]-pyrimidine-2,4-diamine]",–
0.0417,Cc1cn(-c2ccc(Nc3ncc(C)c(Nc4cccc(S(=O)(=O)NC(C)(C)C)c4)n3)cc2)cn1 [N-tert-Butyl-3-{5-methyl-2-[4-(4-methyl-imidazol-1-yl)-phenylamino]-pyrimidin-4-ylamino}-benzenesulfonamide],–
0.0297,Cc1cnc(Nc2ccc(C(C)N3CCOCC3)cc2)nc1Nc1cccc(S(=O)(=O)NC(C)(C)C)c1 (stereo not drawn) [N-tert-Butyl-3-{5-methyl-2-[4-(1-morpholin-4-yl-ethyl)-phenylamino]-pyrimidin-4-ylamino}-benzenesulfonamide],–
0.127,"CNS(=O)(=O)c1cc(Nc2nc(Nc3ccc(OCCN4CCCC4)cc3)ncc2C)ccc1C [2,N-Dimethyl-5-{5-methyl-2-[4-(2-pyrrolidin-1-yl-ethoxy)-phenylamino]-pyrimidin-4-ylamino}-benzenesulfonamide]",–

IC50 (Table 1) [µM],SMILES,also measured
0.0101,"Cc1cnc(Nc2ccc(CN3CCNCC3)cc2)nc1Nc1cccc2[nH]ccc12 [N4-(1H-Indol-4-yl)-5-methyl-N2-(4-piperazin-1-ylmethyl-phenyl)-pynmidine-2,4-diamine]",–
0.0176,"Cc1cnc(Nc2ccc(OCCN3CCCC3)cc2)nc1Nc1cccc(C(F)(F)F)c1 [N2-(4-(2-(pyrrolidin-1-yl)ethoxy)phenyl)-N4-(3-(trifluoromethyl)phenyl)-5-methylpyrimidine-2,4-diamine]",–
0.116,"Cc1cnc(Nc2ccc(OCCO)nc2)nc1Nc1cccc2c1OCO2 [2-{5-[4-(Benzo[1,3]dioxol-4-ylamino)-5-methyl-pyrimidin-2-ylamino]-pyridin-2-yloxy}-ethanol]",–
–,Cc1cnc(Nc2cccc(S(=O)(=O)NC(C)(C)C)c2)nc1Nc1cccc(S(=O)(=O)NC(C)(C)C)c1 [Compound 58],"IC50 (Table 9, SAR of the P2/P1 region): 0.707 µM"
0.0152,"COc1cc(Nc2nc(Nc3ccc(CN4CCNCC4)cc3)ncc2C)ccc1Cl [N4-(4-Chloro-3-methoxy-phenyl)-5-methyl-N2-(4-piperazin-1-ylmethyl-phenyl)-pyrimidine-2,4-diamine]",–
0.0528,"COc1cccc(Nc2nc(Nc3ccc(OCCN4CCCC4)cc3)ncc2C)c1 [drawing 301, N2-(4-(2-(pyrrolidin-1-yl)ethoxy)phenyl)-N4-(3-methoxyphenyl)-5-methylpyrimidine-2,4-diamine Hydrochloride]",–
10.5,"COc1cc(Nc2nc(Nc3cccc(OCCN4CCCC4)c3)ncc2C#N)c(Cl)cc1Cl [drawing 299, 4-(2,4-Dichloro-5-methoxy-phenylamino)-2-[3-(2-pyrrolidin-1-yl-ethoxy)-phenylamino]-pyrimidine-5-carbonitrile]",–
0.0444,Cc1ccc(Nc2nc(Nc3ccc(OCCN4CCCC4)cc3)ncc2C)cc1S(=O)(=O)NC(C)(C)C [N-tert-Butyl-2-methyl-5-{5-methyl-2-[4-(2-pyrrolidin-1-yl-ethoxy)-phenylamino]-pyrimidin-4-ylamino}-benzenesulfonamide],–
0.0047,"Cc1cnc(Nc2ccc(N3CCN(C)CC3)cc2)nc1Nc1cccc(C(C)(C)C)c1 [N4-(3-tert-butylphenyl)-5-methyl-N2-(4-(4-methylpiperazin-1-yl)phenyl)pyrimidine-2,4-diamine Hydrochloride]",–
0.0636,Cc1cnc(Nc2ccc(N3CCN(C)CC3)cc2)nc1Nc1cccc(NC(=O)Nc2ccccc2)c1 [1-(3-{5-Methyl-2-[4-(4-methyl-piperazin-1-yl)-phenylamino]-pyrimidin-4-ylamino}-phenyl)-3-phenyl-urea],–
0.00934,"COc1cc(Nc2ncc(C)c(Nc3cccc4c3OCO4)n2)ccc1OCCN1CCCC1 [N4-Benzo[1,3]dioxol-4-yl-N2-[3-methoxy-4-(2-pyrrolidin-1-yl-ethoxy)-phenyl]-5-methyl-pyrimidine-2,4-diamine]",–
0.01,Cc1cnc(Nc2ccc(N3CCNCC3)nc2)nc1Nc1cccc(S(=O)(=O)NC(C)(C)C)c1 [N-tert-Butyl-3-[5-methyl-2-(6-piperazin-1-yl-pyridin-3-ylamino)-pyrimidin-4-ylamino]-benzenesulfonamide],–
0.00928,"Cc1cnc(Nc2ccc(OCCN3CCCC3)cc2)nc1Nc1ccc(F)c2[nH]ccc12 [N2-(4-(2-(pyrrolidin-1-yl)ethoxy)phenyl)-N4-(7-fluoro-1H-indol-4-yl)-5-methylpyrimidine-2,4-diamine Hydrochloride]",–
0.0807,Cc1cnc(Nc2ccc(Cc3ccncc3)cc2)nc1Nc1cccc(S(=O)(=O)NC(C)(C)C)c1 [N-tert-Butyl-3-[5-methyl-2-(4-pyridin-4-ylmethyl-phenylamino)-pyrimidin-4-ylamino]-benzenesulfonamide],–
0.012,"COc1cc(Nc2nc(Nc3ccc(CN4CCN(C)CC4)cc3)ncc2C)ccc1Cl [N4-(4-Chloro-3-methoxy-phenyl)-5-methyl-N2-[4-(4-methyl-piperazin-1-ylmethyl)-phenyl]-pyrimidine-2,4-diamine]",–
0.0136,Cc1cnc(Nc2ccc(N3CCN(C)CC3)cc2)nc1Nc1cccc(S(N)(=O)=O)c1 [3-{5-Methyl-2-[4-(4-methyl-piperazin-1-yl)-phenylamino]-pyrimidin-4-ylamino}-benzenesulfonamide],–
0.00953,"Cc1cnc(Nc2ccc(N3CCN(C)CC3)cc2)nc1Nc1cccc2[nH]ccc12 [N4-(1H-indol-4-yl)-5-methyl-N2-(4-(4-methylpiperazin-1-yl)phenyl)pyrimidine-2,4-diamine Hydrochloride]",–
0.069,Cc1cnc(Nc2ccc(C(=O)N3CCNCC3)cc2)nc1Nc1cccc(S(=O)(=O)NC(C)(C)C)c1 [N-tert-Butyl-3-{5-methyl-2-[4-(piperazine-1-carbonyl)-phenylamino]-pyrimidin-4-ylamino}-benzenesulfonamide],–
6.24,"COc1cc(Nc2nc(Nc3ccc(OCCN4CCCC4)cc3)ncc2C#N)c(Cl)cc1Cl [drawing 298, 4-(2,4-Dichloro-5-methoxy-phenylamino)-2-[4-(2-pyrrolidin-1-yl-ethoxy)-phenylamino]-pyrimidine-5-carbonitrile]",–
